From the NIST ThermoML archive (doi:10.1016/j.jct.2008.09.018)

Assay: xn = mol fraction of the nth substance listed
Conditions: 101 kPa, Liquid; for speed of sound: Pulse-echo method; for viscosity: Capillary tube (Ostwald / Ubbelohde) method; for mass density: Vibrating tube method

CCCCCCCCCO [nonan-1-ol] + OCCO
Conditions | mass density [kg/m3] | speed of sound [m/s] | viscosity [mPa·s]
293.15 K, x2 = 0 | – | 1381.6 | –
293.15 K, x2 = 0.1002 | – | 1383.9 | –
293.15 K, x2 = 0.1979 | – | 1387.2 | –
293.15 K, x2 = 0.2964 | – | 1391.9 | –
293.15 K, x2 = 0.3641 | – | 1396.2 | –
293.15 K, x2 = 0.4533 | – | 1403.7 | –
293.15 K, x2 = 0.5432 | – | 1414.2 | –
293.15 K, x2 = 0.6441 | – | 1431.5 | –
293.15 K, x2 = 0.7517 | – | 1460.2 | –
293.15 K, x2 = 0.9308 | – | 1571.1 | –
298.15 K, x2 = 0 | 824.48 | 1364.4 | 9.494
298.15 K, x2 = 0.1002 | 833.41 | 1366.8 | 9.581
298.15 K, x2 = 0.1979 | 843.96 | 1370.3 | 10.01
298.15 K, x2 = 0.2964 | 856.32 | 1375.2 | 10.67
298.15 K, x2 = 0.3641 | 866.44 | 1379.8 | 11.26
298.15 K, x2 = 0.4533 | 881.71 | 1387.6 | 12.22
298.15 K, x2 = 0.5432 | 900.44 | 1398.4 | 13.41
298.15 K, x2 = 0.6441 | 926.38 | 1416.2 | 15.09
298.15 K, x2 = 0.701 | 944.22 | – | –
298.15 K, x2 = 0.7517 | 963.14 | 1445.4 | 17.32
298.15 K, x2 = 0.9308 | 1055.33 | 1558.5 | 19.28
303.15 K, x2 = 0 | 821.05 | 1347.4 | 7.994
303.15 K, x2 = 0.1002 | 830.02 | 1350 | 8.014
303.15 K, x2 = 0.1979 | 840.61 | 1353.6 | 8.359
303.15 K, x2 = 0.2964 | 852.92 | 1358.8 | 8.897
303.15 K, x2 = 0.3641 | 863 | 1363.5 | 9.37
303.15 K, x2 = 0.4533 | 878.3 | 1371.5 | 10.14
303.15 K, x2 = 0.5432 | 896.94 | 1382.7 | 11.09
303.15 K, x2 = 0.6441 | 922.82 | 1400.8 | 12.4
303.15 K, x2 = 0.701 | 940.61 | – | –
303.15 K, x2 = 0.7517 | 959.57 | 1430.7 | 14.12
303.15 K, x2 = 0.9308 | 1051.63 | 1545.7 | 15.47
308.15 K, x2 = 0 | 817.57 | 1330.5 | 6.713
308.15 K, x2 = 0.1002 | 826.58 | 1333.2 | 6.801
308.15 K, x2 = 0.1979 | 837.18 | 1337.1 | 7.044
308.15 K, x2 = 0.2964 | 849.41 | 1342.4 | 7.487
308.15 K, x2 = 0.3641 | 859.49 | 1347.3 | 7.872
308.15 K, x2 = 0.4533 | 874.74 | 1355.6 | 8.493
308.15 K, x2 = 0.5432 | 893.37 | 1367.1 | 9.257
308.15 K, x2 = 0.6441 | 919.23 | 1385.6 | 10.31
308.15 K, x2 = 0.701 | 937.01 | – | –
308.15 K, x2 = 0.7517 | 956 | 1416.1 | 11.66
308.15 K, x2 = 0.9308 | 1048.12 | 1532.9 | 12.67
313.15 K, x2 = 0 | 814.19 | 1313.6 | 5.657
313.15 K, x2 = 0.1002 | 823.15 | 1316.5 | 5.782
313.15 K, x2 = 0.1979 | 833.73 | 1320.6 | 5.984
313.15 K, x2 = 0.2964 | 845.93 | 1326.3 | 6.352
313.15 K, x2 = 0.3641 | 855.98 | 1331.3 | 6.667
313.15 K, x2 = 0.4533 | 871.22 | 1339.8 | 7.176
313.15 K, x2 = 0.5432 | 889.84 | 1351.6 | 7.796
313.15 K, x2 = 0.6441 | 915.68 | 1370.4 | 8.65
313.15 K, x2 = 0.701 | 933.39 | – | –
313.15 K, x2 = 0.7517 | 952.37 | 1401.6 | 9.722
313.15 K, x2 = 0.9308 | 1044.52 | 1520.3 | 10.47
